Measured values from patent US8080529B2, “Macrolides with anti-inflammatory activity” (Glaxo Group Limited, priority 2005, dated 2011).
Read-outs that look alike come from different tables or passages of the source.

Experiments:
TNF-α [1] = assay: Inhibition of TNF-α production by stimulated human peripheral blood leukocytes in vitro; type: cell-based; details: Homo sapiens, Leukocyte, read-out: Percentage of inhibition of TNF-α production
Procedure, shortened: (§1)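 Sandwich ELISA of supernatant cytokines; % inhibition = (1 − sample/stimulated untreated control)×100. Dextran-isolated human PBL were pretreated 2 h with 10 or 50 μM compound, then challenged overnight with LPS (2 μg/mL), PMA (1 μg/mL) or zymosan (120 μg/mL).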

IL-1α = assay: Inhibition of IL-1 production by stimulated human peripheral blood leukocytes in vitro; type: cell-based; details: Homo sapiens, Leukocyte, read-out: Percentage of inhibition of IL-1α production
IL-6 = assay: Inhibition of IL-6 production by stimulated human peripheral blood leukocytes in vitro; type: cell-based; details: Homo sapiens, Leukocyte, read-out: Percentage of inhibition of IL-6 production
Procedure, shortened: as §1

IL-8 = assay: Inhibition of IL-8 production by stimulated human peripheral blood leukocytes in vitro; type: cell-based; details: Homo sapiens, Leukocyte, read-out: Percentage of inhibition of IL-8 production
Procedure, shortened: as §1

[2] = test system: human peripheral blood mononuclear cells (PBMC); assay: Effects on human T-cell proliferation in vitro (3H-thymidine incorporation); type: cell-based; details: Homo sapiens, PBMC, read-out: Percentage of inhibition of proliferation of stimulated PBMC
Procedure, shortened: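 Proliferation of human peripheral blood mononuclear cells (PBMC) was assessed in the presence of test compounds. During the final 18 h of culture each well received 1 μCi of ^3H-thymidine. Cells were then collected onto a 96-well filter with a multiple cell harvester, and ^3H-thymidine incorporation was counted on a TopCount NXT to give percentage inhibition of proliferation.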

Hep G2 = assay: Cytotoxicity assay (MTT), Hep G2 cell line; type: cell-based; details: 24 h
Procedure, shortened: (§2)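 Hep G2 and A549 cells were cultured 24 h at 37° C in RPM medium with test compounds at 50 μM and 12.5 μM. MTT was added for 0.5-2 h and formazan read at 490 nm. Growth value calculated as OD490 treated/OD490 nontreated ×100.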

A549 = assay: Cytotoxicity assay (MTT), A549 cell line; type: cell-based; details: 24 h
Procedure, shortened: as §2

TNF-α [3] = assay: Lipopolysaccharide induced TNF-α production in Balb/cJ mice; type: in vivo; details: Mus musculus, ip, 1.5 h; 10 mg/kg intraperitoneally, 30 min before LPS; 90 min after LPS; read-out: % inhibition of TNF-α production (plasma)

| SMILES | inhibition at 10 µM (TNF-α [1]; LPS-stimulated PBL) | inhibition at 10 µM (TNF-α [1]; PMA-stimulated PBL) | inhibition at 10 µM (TNF-α [1]; zymosan-stimulated PBL) | inhibition at 50 µM (TNF-α [1]; LPS-stimulated PBL) | inhibition at 50 µM (TNF-α [1]; PMA-stimulated PBL) | inhibition at 50 µM (TNF-α [1]; zymosan-stimulated PBL) | inhibition at 10 µM (IL-1α; LPS-stimulated PBL) | inhibition at 10 µM (IL-1α; PMA-stimulated PBL) | inhibition at 10 µM (IL-1α; zymosan-stimulated PBL) | inhibition at 50 µM (IL-1α; LPS-stimulated PBL) | inhibition at 50 µM (IL-1α; PMA-stimulated PBL) | inhibition at 50 µM (IL-1α; zymosan-stimulated PBL) | inhibition at 10 µM (IL-6; LPS-stimulated PBL) | inhibition at 10 µM (IL-6; PMA-stimulated PBL) | inhibition at 10 µM (IL-6; zymosan-stimulated PBL) | inhibition at 50 µM (IL-6; LPS-stimulated PBL) | inhibition at 50 µM (IL-6; PMA-stimulated PBL) | inhibition at 50 µM (IL-6; zymosan-stimulated PBL) | inhibition at 10 µM (IL-8; LPS-stimulated PBL) | inhibition at 10 µM (IL-8; PMA-stimulated PBL) | further results |
| --- | --- | --- | --- | --- | --- | --- | --- | --- | --- | --- | --- | --- | --- | --- | --- | --- | --- | --- | --- | --- | --- |
| CC[C@H]1OC(=O)[C@H](C)[C@@H](O[C@H]2C[C@@](C)(OC)[C@@H](OC(=O)CCN3CCCN(CCCN4CCCC4)CC3)[C@H](C)O2)[C@H](C)[C@@H](O[C@@H]2O[C@H](C)C[C@H](N(C)C)[C@H]2O)[C@](C)(OC)C[C@@H](C)C(=O)N[C@H](C)[C@@H](O)[C@]1(C)O [Example 34] | 55% | 86% | 65% | 96% | 100% | 100% | 69% | 86% | 77% | 82% | 100% | 99% | 28% | 66% | 66% | 91% | 95% | 99% | 21% | 33% | inhibition at 10 µM (IL-8; zymosan-stimulated PBL): 32%; inhibition at 50 µM (IL-8; LPS-stimulated PBL): 87%; inhibition at 50 µM (IL-8; PMA-stimulated PBL): 76%; inhibition at 50 µM (IL-8; zymosan-stimulated PBL): 81%; inhibition at 10 µM ([2]; PHA): 66%; inhibition at 50 µM ([2]; PHA): 99%; inhibition at 10 µM ([2]; PMA + iono.): 0%; inhibition at 50 µM ([2]; PMA + iono.): 87%; Percentage of inhibition of cell growth (Hep G2; 12.5 μM): 7%; Percentage of inhibition of cell growth (Hep G2; 50 μM): 1%; Percentage of inhibition of cell growth (A549; 12.5 μM): 0%; Percentage of inhibition of cell growth (A549; 50 μM): 1%; inhibition in vivo at 10 mg/kg (TNF-α [3]): 78% |
| CC[C@H]1OC(=O)[C@H](C)[C@@H](O[C@H]2C[C@@](C)(OC)[C@@H](OC(=O)CCN(CC)CC)[C@H](C)O2)[C@H](C)[C@@H](O[C@@H]2O[C@H](C)C[C@H](N(C)C)[C@H]2O)[C@](C)(O)C[C@@H](C)CN(C)[C@H](C)[C@@H](O)[C@]1(C)O [Example 48, 4″-O-(3-diethylamino-propionyl)-azithromycin] | 49% | 31% | 82% | 87% | 90% | 97% | 64% | 38% | 85% | 79% | 78% | 92% | 57% | 30% | 73% | 97% | 84% | 97% | 36% | 25% | inhibition at 10 µM (IL-8; zymosan-stimulated PBL): 49%; inhibition at 50 µM (IL-8; LPS-stimulated PBL): 85%; inhibition at 50 µM (IL-8; PMA-stimulated PBL): 83%; inhibition at 50 µM (IL-8; zymosan-stimulated PBL): 90%; inhibition at 10 µM ([2]; PHA): 93%; inhibition at 50 µM ([2]; PHA): 100%; inhibition at 10 µM ([2]; PMA + iono.): 81%; inhibition at 50 µM ([2]; PMA + iono.): 100%; Percentage of inhibition of cell growth (Hep G2; 12.5 μM): 0%; Percentage of inhibition of cell growth (Hep G2; 50 μM): 9%; Percentage of inhibition of cell growth (A549; 12.5 μM): 0%; Percentage of inhibition of cell growth (A549; 50 μM): 0%; inhibition in vivo at 10 mg/kg (TNF-α [3]): 52% |
| CC[C@H]1OC(=O)[C@H](C)C(O[C@H]2C[C@@](C)(OC)[C@@H](OC(=O)CCN(CC)CC)[C@H](C)O2)[C@H](C)[C@@H](O[C@@H]2O[C@H](C)C[C@H](N(C)C)[C@H]2O)[C@](C)(OC)C[C@@H](C)C(=O)[C@H](C)[C@H](O)[C@]1(C)O (stereo partly drawn) [Example 49, 4″-O-(3-Diethylamino-propionyl)-6-O-methylerithromycin A] | 69% | 37% | 70% | 91% | 86% | 93% | 84% | 35% | 76% | 86% | 84% | 25% | 70% | 76% | 76% | 99% | 86% | 97% | 44% | 0% | inhibition at 10 µM (IL-8; zymosan-stimulated PBL): 15%; inhibition at 50 µM (IL-8; LPS-stimulated PBL): 86%; inhibition at 50 µM (IL-8; PMA-stimulated PBL): 95%; inhibition at 50 µM (IL-8; zymosan-stimulated PBL): 54%; inhibition at 10 µM ([2]; PHA): 44%; inhibition at 50 µM ([2]; PHA): 99%; inhibition at 10 µM ([2]; PMA + iono.): 24%; inhibition at 50 µM ([2]; PMA + iono.): 100%; Percentage of inhibition of cell growth (Hep G2; 12.5 μM): 5%; Percentage of inhibition of cell growth (Hep G2; 50 μM): 26%; Percentage of inhibition of cell growth (A549; 12.5 μM): 0%; Percentage of inhibition of cell growth (A549; 50 μM): 6%; inhibition in vivo at 10 mg/kg (TNF-α [3]): 43% |
